Reference: patent publication US20090321255A1, “Drug-meter: Multiwell membrane-based potentiometric sensor for high throughput tests of drugs” (priority 2008, published 2009)
Counter-ions that a name gives are not always drawn.

Experiments:
albumin = albumin (Homo sapiens, UniProt P02768); test: Transmembrane potential calibration of the multiwell sensor in albumin solution; type: physicochemical
Experimental: In some cases drugs concentration was measured in albumin solutions with protein concentration 0.022 g/cm^3 in buffer or Fetal Bovine Serum was used with concentration of serum albumin in the range 0.0187 g/cm^3-0.022 g/cm^3.
The base plate was filled with the buffer of reference concentration 5×10^−6 M of drug, and the wells with albumin-drug solution, with constant concentration of albumin, but varying concentration of drug.
In this case the measuring Ag/AgCl electrode was inserted into the wells with albumin solution with decreasing fenfluramine concentrations, then increasing fenfluramine concentrations, i.e. forward and backward using the same wells. The base solution was buffer. The method allows measurements of fenfluramine from 5×10^−5 to 5×10^−2M.
If different concentrations of rimantadine in albumin solution were preliminary prepared, preequilibrated and then added into the wells (method 2), a gradient was 59.9 mV per 10 fold change in drug concentration, which is similar to that with a buffer solution.
Chlorpromazine test solutions were injected into the wells and the reference solution of 5×10^−6 M Chlorpromazine in the buffer was added into the base. […] This effect is similar to the lysis of biological membranes and is related to the surface active properties of chlorpromazine. It was observed also with several other psychotropic substances, including several antidepressants. Those of the drugs which induce lysis at elevated concentrations also have nonspecific liver toxicity.

[1] = Biomimetic membrane lysis (screen for nonspecific liver toxicity); details: elevated drug concentration (chlorpromazine near 0.05 M, after some time)
[2] = Transmembrane potential calibration of multiwell biomimetic membrane sensor in buffer; type: physicochemical; details: pH 8
Source text: Multiwell plates used were commercial Millipore MultiScreen VM 0.05μ plates with nitrocellulose ultrafilters located at the base of each of the 96 wells of a plate. Though the number of the wells in the examples given in the disclosure is 96, as it is in the usual multiwell plates, it is not limited by this number and can be any from 2 and above.
All filters were impregnated by isopropyl myristate or some other lipid-like substances, like long chain fatty acids, their methyl and ethyl-esters, fats, etc. After impregnation the membranes should be translucent.
Each well requires as little as 200 μl of test solution. The small well's volume and the numerous wells (96) make the plates highly suitable as a part of the drug sensor, both for pharmaceutical testing in a buffer as well as for testing in biological fluids.
The tray cover can be is used as a base tray to put the reference buffer solution. Two Ag/AgCl electrodes with the salt bridges were used to measure transmembrane potential with common multimeter. It is possible to use one Ag/AgCl element as a measuring electrode and move it from one well to another. Another option is to have different measuring electrodes in different wells and separately to collect signals from each of them separately.
Kinetics of the process was registered with electrochemical station GPES. […]

[3] = Kinetics of transmembrane potential decrease due to drug transport through the membrane; type: physicochemical
Experimental: Kinetics of the process was registered with electrochemical station GPES. 5 mM Potassium Dihydrogen Phosphate solution in water was used as a buffer, filling the tray with the volume ˜30 ml. Known concentration of a drug (usually near 10^−5 M) could be added in the buffer as the reference. Membrane resistance after impregnation was several megaohms and usually decreases after modification of the membrane with drugs. Resistance is much lower when the membrane is broken. In this case the measurements can be conducted in other wells with the same test solution.
Using electrochemical station and computer it is possible to measure potential continuously in time, and for example, to study drug transport through the membrane. In this case it is possible to have different drugs or different types of membranes in different wells.
The steady state potential can decrease in time if one waits at least several minutes due to the slow drug transport through the membrane. After the experiments the membrane could be washed, dried, reimpregnated and after preequilibration used again.
At higher concentrations of the drug after the transmembrane potential reaches its maximum value, it slowly decreases with time due to the transport of the drug (FIG. 6). At pH 8 characteristic time was of the order ˜20 s and increased at more acidic pH to ˜100 s.

[4] = bovine, fetal bovine serum, plasma or biological fluid
[5] = pH 7.4 buffer, pH 7.4, aqueous buffer
[6] = method 1: drug added directly into albumin solutions in the wells

Sequence of albumin (P02768 25-609, species assumed): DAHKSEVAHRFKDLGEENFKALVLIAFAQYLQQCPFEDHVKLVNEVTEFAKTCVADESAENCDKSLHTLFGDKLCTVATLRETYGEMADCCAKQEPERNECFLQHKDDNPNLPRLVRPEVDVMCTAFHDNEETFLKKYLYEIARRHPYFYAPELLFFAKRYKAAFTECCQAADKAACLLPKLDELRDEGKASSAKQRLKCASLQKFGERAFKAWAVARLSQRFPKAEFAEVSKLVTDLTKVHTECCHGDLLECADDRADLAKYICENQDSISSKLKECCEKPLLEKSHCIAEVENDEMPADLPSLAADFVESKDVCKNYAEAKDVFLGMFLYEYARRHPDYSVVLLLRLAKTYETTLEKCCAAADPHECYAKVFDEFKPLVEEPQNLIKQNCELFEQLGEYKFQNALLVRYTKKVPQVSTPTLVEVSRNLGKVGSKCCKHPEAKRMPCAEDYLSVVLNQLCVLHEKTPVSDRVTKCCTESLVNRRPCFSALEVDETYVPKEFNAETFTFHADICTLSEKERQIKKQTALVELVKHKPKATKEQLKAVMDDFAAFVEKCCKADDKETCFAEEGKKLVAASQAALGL

SMILES	solubility (Solubility; [4]) [mM]	solubility (Solubility; [5]) [mM]	slope of calibration curve (albumin; [6])	time for the potential to reach the steady state (albumin; [6])	gradient of calibration curve (albumin; method 2: drug in albumin solution prepared, preequilibrated, then added into wells)	membrane lysis / loss of transmembrane potential [1]	potentials in buffer versus albumin solutions (drug binding property of albumin) (albumin; pH2, reference 5×10^−6 M drug in buffer)	time taken to reach the maximum potential [2]	characteristic time of potential decrease due to transport of the drug ([3]; more acidic pH) [s]	characteristic time of potential decrease due to transport of the drug ([3]; pH 8, higher drug concentrations (FIG. 6: 10^−3 M)) [s]
CC(N)C12CC3CC(CC(C3)C1)C2.Cl (stereo not drawn) [Rimantadine Hydrochloride, 1-(1-Adamantyl)ethylamine hydrochloride]	~10	~50	19.3 mV per 10 fold change in Rimantadine concentration	at least an hr	59.9 mV per 10 fold change in drug concentration	did not result in the membrane lysis				
CN(C)CCCN1c2ccccc2Sc2ccc(Cl)cc21 [Chlorpromazine Hydrochloride, 2-chloro-10-[3-dimethylaminopropyl] phenothiazine]							higher with buffer than with albumin solutions			
CCNC(C)Cc1cccc(C(F)(F)F)c1.Cl (racemic) [Fenfluramine Hydrochloride, (+/−)-N-ethyl-α-methyl-m-(trifluoromethyl) phenethylamine HCl]	~10	~50						less then a minute	~100	~20
